Among the data in patent US20260250322A1, “NEW PEPTIDES AS SELECTIVE IL-23 RECEPTOR INHIBITORS” (SANOFI, priority 2023, published 2026) are IC50 values, retold here.

One experiment has as its target T1, human IL-23R (Homo sapiens, UniProt Q5VWK5).
T1 sequence (Q5VWK5 24-355 limits assumed): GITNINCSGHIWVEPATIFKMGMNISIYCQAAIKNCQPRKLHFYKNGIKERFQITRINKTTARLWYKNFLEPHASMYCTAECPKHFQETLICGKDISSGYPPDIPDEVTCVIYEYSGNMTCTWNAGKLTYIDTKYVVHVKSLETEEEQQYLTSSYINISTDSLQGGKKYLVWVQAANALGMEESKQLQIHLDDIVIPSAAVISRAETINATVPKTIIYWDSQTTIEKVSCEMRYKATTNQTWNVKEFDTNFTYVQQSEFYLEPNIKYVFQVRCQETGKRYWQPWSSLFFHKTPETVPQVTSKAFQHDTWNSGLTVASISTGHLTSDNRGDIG
Nature of the experiment: Human ELISA IL-23/IL-23R binding inhibition. The following applies: human IL-23 coated, recombinant human IL-23R-Fc chimera. On the procedure:
Antagonism of peptide compounds for human interleukin-23 receptor inhibitors, was determined by an ELISA assay.
A 384-well plate was coated with 50 μl/well of human IL-23 at a final concentration of 1 μg/ml and incubated overnight at 4° C. The wells were washed 3 times with 80 μl wash buffer and blocked with 80 μl blocking buffer for 60 minutes at room temperature and washed again. 20 μl of serially diluted test peptides was added to each well and subsequently 20 μl of recombinant human IL-23R-Fc chimera at final concentration of 0.1 μg/ml. The plate was incubated for 60 minutes at room temperature. After the wells were washed, bound IL-23R-Fc was detected with goat anti-hu-lgG1-HRP antibody. Signals were visualized with QuantaBlu Fluorogenic Peroxidase Substrate.

Experiment [1] relates to IL-23 induced STAT3 signaling. Nature of the experiment: Inhibition of IL-23 induced STAT3 signaling in HEK-Blue IL-23 cells (SEAP reporter). The experiment is classed as cell-based. The following applies: human IL-23 0.25 ng/ml, read-out: Inhibition of IL-23 induced pSTAT3 (IC50 nM). The source says:
HEK-Blue™ IL-23 cells (Invivogen) are designed for the detection of bioactive human (hIL-23) and murine IL-23 (mIL-23) by monitoring the activation of the STAT3 pathway. Binding of IL-23 to its receptor on the surface of HEK-Blue™ IL-23 cells triggers a signaling cascade leading to the activation of STAT3 and the subsequent production of secreted embryonic alkaline phosphatase (SEAP). This can be readily assessed using QUANTI-Blue™ Solution, a SEAP detection reagent.
HEK-Blue™ IL-23 cells were cultured as described by Invivogen.
On the first day of assay 10 μL of the HEK-Blue IL-23 cell suspension (final concentration: 10,000 cells/well) and 10 μl of serially diluted compound solutions were dispensed into a 384-well assay plate. After pre-incubation of the reaction mixtures at 37° C./5% CO2/95% humidity for 60 minutes, 10 μl of the humanIL-23 cytokine (final concentration: 0.25 ng/ml) was added to each well for the STAT3 signaling activation. The plate was incubated overnight at 37° C./5% CO2/95% humidity.
On the second day 20 μl per well of Quanti-Blue detection solution (prepared according to the manufacture instruction) was dispensed into a new 384-well plate and followed by the transfer of 5 μl supernatant of the overnight incubated cell/sample mixtures. After incubation of 45 min at room temperature signals were measured with PHERAstar (BMG) at OD 620-655 nm.
Dose response data were fitted with XLfit.

Bridge positions count the residues as written; N and C are the ends. Square brackets hold non-standard residues; d marks the D form. Peptide text beside a SMILES is read from it. Trp(1-Me) = Cn1cc(C[C@H](N)C(=O)O)c2ccccc21; dAla(4-thiazolyl) = N[C@H](Cc1cscn1)C(=O)O; 1Nal = N[C@@H](Cc1cccc2ccccc12)C(=O)O; 2Nal = N[C@@H](Cc1ccc2ccccc2c1)C(=O)O; Cit = NC(=O)NCCC[C@H](N)C(=O)O; αMeL = CC(C)C[C@](C)(N)C(=O)O; Thp = NC1(C(=O)O)CCOCC1; Aib = CC(C)(N)C(=O)O

As for `COc1ccc(C[C@@H]2NC(=O)[C@H](CCCNC(=N)N)NC(=O)[C@H](CCC(N)=O)NC(=O)[C@H](Cc3cn(C)c4ccccc34)NC(=O)[C@H]([C@@H](C)O)NC(=O)[C@H](CC(N)=O)NC(=O)[C@H](NC(C)=O)CCCCNC(=O)C[C@@H](C(=O)N[C@@H](CC(N)=O)C(=O)N[C@@H](CC(N)=O)C(N)=O)NC(=O)[C@@H](Cc3cscn3)NC(=O)[C@H](Cc3ccc4ccccc4c3)NC2=O)cc1` [compound 25] (Ac-[dK]NT[Trp(1-Me)]QRY(Me)[2Nal][dAla(4-thiazolyl)]DNN-NH2; lactam 1-10), the figures for the IC50 (on human IL-23R; in experiment [1]) were 9.61 nM and 3830 nM, respectively.

Regarding `COc1ccc(C[C@@H]2NC(=O)[C@H](C(C)C)NC(=O)[C@H](CCC(N)=O)NC(=O)[C@H](Cc3c[nH]c4ccccc34)NC(=O)[C@H]([C@@H](C)O)NC(=O)[C@H](CC(N)=O)NC(=O)[C@H](NC(C)=O)CCCCNC(=O)C[C@@H](C(=O)N[C@@H](CC(N)=O)C(=O)N[C@@H](CC(N)=O)C(N)=O)NC(=O)C(C)(C)NC(=O)[C@H](Cc3cccc4ccccc34)NC2=O)cc1` [compound 20] (Ac-[dK]NTWQVY(Me)[1Nal][Aib]DNN-NH2; lactam 1-10), the figures for the IC50 (on human IL-23R; in experiment [1]) were 15.9 nM and 10000 nM, respectively.

`COc1ccc(C[C@@H]2NC(=O)[C@H](C)NC(=O)[C@H](CCC(N)=O)NC(=O)[C@H](Cc3c[nH]c4ccccc34)NC(=O)[C@H]([C@@H](C)O)NC(=O)[C@H](CC(N)=O)NC(=O)[C@H](NC(C)=O)CCCCNC(=O)C[C@@H](C(=O)N[C@@H](CC(N)=O)C(=O)N[C@@H](CC(N)=O)C(N)=O)NC(=O)C(C)(C)NC(=O)[C@H](Cc3ccc4ccccc4c3)NC2=O)cc1` [compound 2] (Ac-[dK]NTWQAY(Me)[2Nal][Aib]DNN-NH2; lactam 1-10): the IC50 on human IL-23R came out at 0.69 nM; in experiment [1], 234 nM.

As for `COc1ccc(C[C@@H]2NC(=O)[C@H](C(C)C)NC(=O)[C@H](CCC(N)=O)NC(=O)[C@H](Cc3c[nH]c4ccccc34)NC(=O)[C@H]([C@@H](C)O)NC(=O)[C@H](CC(N)=O)NC(=O)[C@H](NC(C)=O)CCCCNC(=O)C[C@@H](C(=O)N[C@@H](CC(N)=O)C(=O)N[C@@H](CC(N)=O)C(N)=O)NC(=O)C(C)(C)NC(=O)[C@H](Cc3ccc4ccccc4c3)NC2=O)cc1` [compound 31] (Ac-[dK]NTWQVY(Me)[2Nal][Aib]DNN-NH2; lactam 1-10), the IC50 at human IL-23R is 8.27 nM; in experiment [1] it was 128 nM.

Turning to `COc1ccc(C[C@@H]2NC(=O)[C@H](CCCNC(=N)N)NC(=O)[C@H](CCC(N)=O)NC(=O)[C@H](Cc3c[nH]c4ccccc34)NC(=O)[C@H]([C@@H](C)O)NC(=O)[C@H](CC(N)=O)NC(=O)[C@H](NC(C)=O)CCCCNC(=O)C[C@@H](C(=O)N[C@@H](CC(N)=O)C(=O)N[C@@H](CC(N)=O)C(N)=O)NC(=O)C(C)(C)NC(=O)[C@H](Cc3ccc4ccccc4c3)NC2=O)cc1` [compound 15] (Ac-[dK]NTWQRY(Me)[2Nal][Aib]DNN-NH2; lactam 1-10), the half-maximal inhibitory concentration (IC50) was determined as 1.04 nM on human IL-23R and 426 nM in experiment [1].

As to `COc1ccc(C[C@@H]2NC(=O)[C@H](CCCNC(=N)N)NC(=O)[C@H](CCC(N)=O)NC(=O)[C@H](Cc3cn(C)c4ccccc34)NC(=O)[C@H]([C@@H](C)O)NC(=O)[C@H](CC(N)=O)NC(=O)[C@H](NC(C)=O)CCCCNC(=O)C[C@@H](C(=O)N[C@@H](CC(N)=O)C(=O)N[C@@H](CC(N)=O)C(N)=O)NC(=O)[C@](C)(CC(C)C)NC(=O)[C@H](Cc3cccc4ccccc34)NC2=O)cc1` [compound 23] (Ac-[dK]NT[Trp(1-Me)]QRY(Me)[1Nal][αMeL]DNN-NH2; lactam 1-10), the concentration for half-maximal inhibition (IC50) came to 12 nM on human IL-23R and 1960 nM in experiment [1].

As to `COc1ccc(C[C@@H]2NC(=O)C(C)(C)NC(=O)[C@H](CCC(N)=O)NC(=O)[C@H](Cc3c[nH]c4ccccc34)NC(=O)[C@H]([C@@H](C)O)NC(=O)[C@H](CC(N)=O)NC(=O)[C@H](NC(C)=O)CCCCNC(=O)C[C@@H](C(=O)N[C@@H](CC(N)=O)C(=O)N[C@@H](CC(N)=O)C(N)=O)NC(=O)C(C)(C)NC(=O)[C@H](Cc3ccc4ccccc4c3)NC2=O)cc1` [compound 32] (Ac-[dK]NTWQ[Aib]Y(Me)[2Nal][Aib]DNN-NH2; lactam 1-10), the IC50 at human IL-23R is 2.68 nM; in experiment [1] it was 320 nM.

`COc1ccc(C[C@@H]2NC(=O)[C@H](CCCNC(=N)N)NC(=O)[C@H](CCC(N)=O)NC(=O)[C@H](Cc3c[nH]c4ccccc34)NC(=O)[C@H]([C@@H](C)O)NC(=O)[C@H](CC(N)=O)NC(=O)[C@H](NC(C)=O)CC(=O)NCCCC[C@@H](C(=O)N[C@@H](CC(N)=O)C(=O)N[C@@H](CC(N)=O)C(N)=O)NC(=O)C(C)(C)NC(=O)[C@H](Cc3ccc4ccccc4c3)NC2=O)cc1` [compound 12] (Ac-[dD]NTWQRY(Me)[2Nal][Aib]KNN-NH2; lactam 1-10): the figures for the IC50 (on human IL-23R; in experiment [1]) were 14.9 nM and 6590 nM, respectively.

Regarding `COc1ccc(C[C@@H]2NC(=O)[C@H](CCCNC(=N)N)NC(=O)[C@H](CCC(N)=O)NC(=O)[C@H](Cc3c[nH]c4ccccc34)NC(=O)[C@H]([C@@H](C)O)NC(=O)[C@H](CC(N)=O)NC(=O)[C@H](NC(C)=O)CCCCNC(=O)C[C@@H](C(=O)N[C@@H](CC(N)=O)C(=O)N[C@@H](CC(N)=O)C(N)=O)NC(=O)[C@H](CCCNC(N)=O)NC(=O)[C@H](Cc3ccc4ccccc4c3)NC2=O)cc1` [compound 29] (Ac-[dK]NTWQRY(Me)[2Nal][Cit]DNN-NH2; lactam 1-10), the IC50 amounted to 5.63 nM on human IL-23R and 2720 nM in experiment [1].

Take `COc1ccc(C[C@@H]2NC(=O)[C@H](CCCNC(=N)N)NC(=O)[C@H](CCC(N)=O)NC(=O)[C@H](Cc3c[nH]c4ccccc34)NC(=O)[C@H]([C@@H](C)O)NC(=O)[C@H](CC(N)=O)NC(=O)[C@@H](NC(C)=O)CCCCNC(=O)C[C@@H](C(=O)N[C@@H](CC(N)=O)C(=O)N[C@@H](CC(N)=O)C(N)=O)NC(=O)C3(CCOCC3)NC(=O)[C@H](Cc3ccc4ccccc4c3)NC2=O)cc1` [compound 41] (Ac-KNTWQRY(Me)[2Nal][Thp]DNN-NH2; lactam 1-10): the 50% inhibitory concentration (IC50) came out at 1.47 nM on human IL-23R and 221 nM in experiment [1].

On to `COc1ccc(C[C@@H]2NC(=O)[C@H](CCCNC(=N)N)NC(=O)[C@H](CCC(N)=O)NC(=O)[C@H](Cc3cn(C)c4ccccc34)NC(=O)[C@H]([C@@H](C)O)NC(=O)[C@H](CC(N)=O)NC(=O)[C@H](NC(C)=O)CCCCNC(=O)C[C@@H](C(=O)N[C@@H](CC(N)=O)C(=O)N[C@@H](CC(N)=O)C(N)=O)NC(=O)[C@H](CCCCNC(C)=O)NC(=O)[C@H](Cc3ccc4ccccc4c3)NC2=O)cc1` [compound 10] (Ac-[dK]NT[Trp(1-Me)]QRY(Me)[2Nal]K(Ac)DNN-NH2; lactam 1-10), for which the values for the IC50 (on human IL-23R; in experiment [1]) were 3.6 nM and 1440 nM, respectively.

Turning to `COc1ccc(C[C@@H]2NC(=O)[C@H](CCCNC(=N)N)NC(=O)[C@H](CCC(N)=O)NC(=O)[C@H](Cc3cn(C)c4ccccc34)NC(=O)[C@H]([C@@H](C)O)NC(=O)[C@H](CC(N)=O)NC(=O)[C@H](NC(C)=O)CCCCNC(=O)C[C@@H](C(=O)N[C@@H](CC(N)=O)C(=O)N[C@@H](CC(N)=O)C(N)=O)NC(=O)[C@](C)(CC(C)C)NC(=O)[C@H](Cc3ccc4ccccc4c3)NC2=O)cc1` [compound 24] (Ac-[dK]NT[Trp(1-Me)]QRY(Me)[2Nal][αMeL]DNN-NH2; lactam 1-10), the IC50 at human IL-23R was 1.21 nM; in experiment [1], 385 nM.

With `COc1ccc(C[C@@H]2NC(=O)[C@H](CCCNC(=N)N)NC(=O)[C@H](CCC(N)=O)NC(=O)[C@H](Cc3c[nH]c4ccccc34)NC(=O)[C@H]([C@@H](C)O)NC(=O)[C@H](CC(N)=O)NC(=O)[C@H](NC(C)=O)CCCCNC(=O)CC[C@@H](C(=O)N[C@@H](CC(N)=O)C(=O)N[C@@H](CC(N)=O)C(N)=O)NC(=O)C(C)(C)NC(=O)[C@H](Cc3ccc4ccccc4c3)NC2=O)cc1` [compound 5] (Ac-[dK]NTWQRY(Me)[2Nal][Aib]ENN-NH2; lactam 1-10), the IC50 amounted to 1.95 nM at human IL-23R and 432 nM in experiment [1].
